Measured values from US7879836B2, “Pharmaceutical composition comprising a 1-(3-chlorophenyl)-3-alkylpiperazine for treating appetite disorder” (Aziende Chimiche Riunite Angelini Francesco A.C.R.A.F. …, priority 2005, dated 2011).

How the values were obtained:
Male CD rats = test: Anxiogenic activity in the rat (test of social interaction); format: in vivo; settings: intraperitoneal; evaluated after 20 minutes during a 10-minute period; FIG. 1
From the text: The anxiogenic activity of the compounds of the present invention was investigated by means of the social interaction test in the rat, which, as is known by a person skilled in the art, represents an experimental model that is predictive of the effects in humans.
Measurement of the time spent by pairs of animals in interacting with one another and exploring their surroundings (usually an arena consisting of a Perspex container) constitutes a model for verifying the action of substances that influence social behaviour.
Male CD rats weighing 150-250 g were used.
The animals were kept in a room with a controlled cycle of light and darkness (6:00-18:00). To promote acclimatization and eliminate responses induced by stress conditions, the rats were handled and were injected daily with the vehicle (water) for the four days preceding administration of the test compounds.
On the fifth day the animals were treated intraperitoneally with the test compounds and, after 20 minutes, the interaction time (seconds) spent by the animals during a 10-minute period was evaluated.

rat = settings: Eur J Pharmacol, 1989, 164: 445-54; cited from earlier work
food-deprived rats = test: Hypophagia-inducing activity in food-deprived rats; format: in vivo, rat; settings: 10 mg/kg orally; rats deprived of food for 24 h; one hour after treatment; FIGS. 2A, 2B
From the text: Verification of the consumption of food in food-deprived rats represents a condition that reproduces the complex system regulating the sensation of hunger and the intake of food in humans. Fasting in fact introduces many physiological changes that can lead to activation of the circuits that are specifically dedicated to the control of food intake. As is well known, the use of this model constitutes a valid tool for identifying substances capable of interfering with appetite disorders and can be used in particular for monitoring conditions such as hyperphagia, bulimia and obesity.
Male CD rats weighing 300-350 g were used.
The animals were kept in a room with a controlled cycle of light and darkness (6:00-18:00). Before the test, which was carried out at 9:30 corresponding to daytime, the animals were deprived of food for 24 h. At the end of the fasting period, the animals were treated orally with the test compounds (10 mg/kg) in an aqueous vehicle and, immediately after treatment, a pre-weighed amount of food was made available. One hour after treatment, the food consumption was evaluated by weighing the amount of food remaining. The control animals were treated orally with the vehicle (water) used for administering the test compounds.

Structure (SMILES)	interaction time relative to that of the control animals (Male CD rats)	anxiogenic effects (social interaction time) (rat)	amount of food consumed, lower than that consumed by the control animals (food-deprived rats)
Clc1cccc(N2CCNCC2)c1 [mCPP, m-chlorophenyl-piperazine]	approx. 50%	reduce social interaction time	
FC(F)(F)c1cccc(N2CCNCC2)c1 [TFMPP, m-trifluoromethyl phenylpiperazine]		reduce social interaction time	
C[C@H]1CN(c2cccc(Cl)c2)CCN1 [Compound 2]			75-80%
C[C@@H]1CN(c2cccc(Cl)c2)CCN1 [Compound 3]			~20%
CC1CN(c2cccc(Cl)c2)CCN1 (racemic) [Compound 1]			approx. 28%
